{"source": "patent US20230302150A1", "about": "“ANTIBODY-TLR AGONIST CONJUGATES, METHODS AND USES THEREOF” (Ambrx, Inc., priority 2020, published 2023)", "molecular_target": "T1, hTLR7 (Homo sapiens, UniProt Q9NYK1)", "T1 construct": "expressed in transfected cells; host or cells: HEK-Blue hTLR7 reporter cell line", "T1 sequence (Q9NYK1 27-1049)": "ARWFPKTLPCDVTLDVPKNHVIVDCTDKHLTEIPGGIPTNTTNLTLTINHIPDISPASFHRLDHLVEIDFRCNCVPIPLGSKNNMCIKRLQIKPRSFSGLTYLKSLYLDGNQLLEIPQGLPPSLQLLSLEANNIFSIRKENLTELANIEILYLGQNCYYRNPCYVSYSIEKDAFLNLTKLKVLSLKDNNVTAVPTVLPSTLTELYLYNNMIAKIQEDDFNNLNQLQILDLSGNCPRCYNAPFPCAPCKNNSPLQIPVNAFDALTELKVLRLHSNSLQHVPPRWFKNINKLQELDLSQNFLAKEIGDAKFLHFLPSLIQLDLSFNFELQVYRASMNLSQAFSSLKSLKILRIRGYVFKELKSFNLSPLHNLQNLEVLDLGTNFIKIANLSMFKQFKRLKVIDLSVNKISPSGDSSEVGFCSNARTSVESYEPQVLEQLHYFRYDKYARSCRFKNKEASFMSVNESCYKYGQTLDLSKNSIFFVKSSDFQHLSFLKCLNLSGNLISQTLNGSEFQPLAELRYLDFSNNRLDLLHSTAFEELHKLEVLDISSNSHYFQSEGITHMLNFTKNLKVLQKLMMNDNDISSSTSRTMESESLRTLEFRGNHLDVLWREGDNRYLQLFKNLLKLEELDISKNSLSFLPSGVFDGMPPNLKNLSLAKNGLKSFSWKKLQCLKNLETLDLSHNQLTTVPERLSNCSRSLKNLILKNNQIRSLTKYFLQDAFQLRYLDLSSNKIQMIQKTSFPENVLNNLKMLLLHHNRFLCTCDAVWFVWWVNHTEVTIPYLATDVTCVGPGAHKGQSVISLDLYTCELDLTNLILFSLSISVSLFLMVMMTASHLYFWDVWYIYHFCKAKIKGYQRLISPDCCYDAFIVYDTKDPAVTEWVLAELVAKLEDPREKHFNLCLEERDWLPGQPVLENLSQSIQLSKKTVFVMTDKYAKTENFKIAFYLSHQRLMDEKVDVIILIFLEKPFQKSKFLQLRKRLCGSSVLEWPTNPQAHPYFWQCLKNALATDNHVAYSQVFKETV", "assay": "HEK-Blue hTLR7 reporter assay (NF-kB-induced SEAP, Quanti-Blue)", "assay_type": "cell-based", "procedure": "HEK-Blue™ hTLR7 cells were incubated in HEK-Blue™ Detection medium and stimulated with increasing concentrations of TLR7 or TLR8 or TLR7/8 agonists. […] The EC50 was determined from dose-response curve using Prism Software.", "key": {"[1]": {"conditions": "Table 19, TLR7, drug-linkers with PEG shielding, read-out: EC50"}, "[2]": {"conditions": "Table 11, TLR7 activities, read-out: EC50"}}, "note": "Like-named read-outs stand apart in the source and are kept apart here."}
{"smiles": "CCCCOc1nc(NC(C)=O)c2[nH]c(=O)n(Cc3ccc(CN4CCC(C5CCN(C(=O)CON)CC5)CC4)cc3)c2n1", "note": "[AXC-981, N-(9-(4-((1′-(2-(aminooxy)acetyl)-4,4′-bipiperidin-1-yl)methyl)benzyl)-2-butoxy-8-oxo-8,9-dihydro-7H-purin-6-yl)acetamide]", "values": [{"measurement": "EC50", "setting": "[1]", "value": 10.1, "unit": "nM"}]}
{"smiles": "CCCCOc1nc(NC(C)=O)c2[nH]c(=O)n(Cc3ccc(CN4CCC(C5CCNCC5)CC4)cc3)c2n1", "note": "[AXC-980, N-(9-(4-(4,4′-bipiperidin-1-ylmethyl)benzyl)-2-butoxy-8-oxo-8,9-dihydro-7H-purin-6-yl)acetamide]", "values": [{"measurement": "EC50", "setting": "[1]", "value": 29.6, "unit": "nM"}]}
{"smiles": "CCCCOc1nc(N)c2[nH]c(=O)n(Cc3ccc(CN4CCC(CCNC(=O)[C@H](Cc5ccc(O)cc5)NC(=O)CON)CC4)cc3)c2n1", "note": "[AXC-953, (S)—N-(2-(1-(4-((6-amino-2-butoxy-8-oxo-7,8-dihydro-9H-purin-9-yl)methyl)benzyl)piperidin-4-yl)ethyl)-2-(2-(aminooxy)acetamido)-3-(4-hydroxyphenyl)propanamide]", "values": [{"measurement": "EC50", "setting": "[1]", "value": 201, "unit": "nM"}]}
{"smiles": "CCCCc1nc2c(N)nc3ccccc3c2n1CCCCNC(=O)c1cc(F)c(N)c(F)c1", "note": "[AXC-779, 4-amino-N-(4-(4-amino-2-butyl-1H-imidazo[4,5-c]quinolin-1-yl)butyl)-3,5-difluorobenzamide]", "values": [{"measurement": "EC50", "setting": "Table 10, read-out: TLR7 EC50", "value": 242, "unit": "nM"}]}
{"smiles": "CCCCOc1nc(N)c2[nH]c(=O)n(Cc3ccc(CN4CCC(CCNC(=O)[C@H](Cc5ccc(O[C@@H]6O[C@H](CO)[C@@H](O)[C@H](O)[C@H]6O)cc5)NC(=O)CON)CC4)cc3)c2n1", "note": "[AXC-956, (S)—N-(2-(1-(4-((6-amino-2-butoxy-8-oxo-7,8-dihydro-9H-purin-9-yl)methyl)benzyl)piperidin-4-yl)ethyl)-2-(2-(aminooxy)acetamido)-3-(4-(((2S,3R,4S,5S,6R)-3,4,5-trihydroxy-6-(hydroxymethyl)tetrahydro-2H-pyran-2-yl)oxy)phenyl)propanamide]", "values": [{"measurement": "EC50", "setting": "[1]", "value": 158, "unit": "nM"}]}
{"smiles": "CCCCOc1nc(N)c2[nH]c(=O)n(Cc3ccc(CN4CCC(CCNC(=O)[C@@H](CCCCNC(=O)CCCC(=O)NCCOCCOCCOCCOCCC(=O)NC(COCCC(=O)NCCOCCOCCOCCOCCOCCOCCOCCOC)(COCCC(=O)NCCOCCOCCOCCOCCOCCOCCOCCOC)COCCC(=O)NCCOCCOCCOCCOCCOCCOCCOCCOC)NC(=O)CON)CC4)cc3)c2n1", "note": "[AXC-961, (R)-N1-(6-((2-(1-(4-((6-amino-2-butoxy-8-oxo-7,8-dihydro-9H-purin-9-yl)methyl)benzyl)piperidin-4-yl)ethyl)amino)-5-(2-(aminooxy)acetamido)-6-oxohexyl)-N5-(dPEG4)-(mPEG8)3-glutaramide]", "values": [{"measurement": "EC50", "setting": "[1]", "value": 856, "unit": "nM"}]}
{"smiles": "CCCCOc1nc(N)c2[nH]c(=O)n(Cc3ccc(CN4CCC(CCN)CC4)cc3)c2n1", "note": "[AXC-878, 6-amino-9-(4-((4-(2-aminoethyl)piperidin-1-yl)methyl)benzyl)-2-butoxy-7H-purin-8(9H)-one]", "values": [{"measurement": "EC50", "setting": "[2]", "value": 50.4, "unit": "nM"}]}
{"smiles": "CCCCOc1nc(NC(C)=O)c2[nH]c(=O)n(Cc3ccc(CN4CCC(CCON)CC4)cc3)c2n1", "note": "[AXC-978, N-(9-(4-((4-(2-(aminooxy)ethyl)piperidin-1-yl)methyl)benzyl)-2-butoxy-8-oxo-8,9-dihydro-7H-purin-6-yl)acetamide]", "values": [{"measurement": "EC50", "setting": "[1]", "value": 28.9, "unit": "nM"}]}
{"smiles": "CCCCOc1nc(N)c2[nH]c(=O)n(Cc3ccc(CN4CCC(C5CCN(C(=O)CCOCCON)CC5)CC4)cc3)c2n1", "note": "[AXC-909, 6-amino-9-(4-((1′-(3-(2-(aminooxy)ethoxy)propanoyl)-4,4′-bipiperidin-1-yl)methyl)benzyl)-2-butoxy-7H-purin-8(9H)-one]", "values": [{"measurement": "EC50", "setting": "Table 14, read-out: TLR7 EC50", "value": 71.9, "unit": "nM"}]}
{"smiles": "CCCCOc1nc(N)c2[nH]c(=O)n(Cc3ccc(CN4CCC(CCNC(=O)[C@H](CCCCNC(=O)CON)NC(=O)CCCC(=O)NCCOCCOCCOCCOCCC(=O)NC(COCCC(=O)NCCOCCOCCOCCOCCOCCOCCOCCOCCOCCOCCOCCOC)(COCCC(=O)NCCOCCOCCOCCOCCOCCOCCOCCOCCOCCOCCOCCOC)COCCC(=O)NCCOCCOCCOCCOCCOCCOCCOCCOCCOCCOCCOCCOC)CC4)cc3)c2n1", "note": "[AXC-946, (S)—N-(2-(1-(4-((6-amino-2-butoxy-8-oxo-7,8-dihydro-9H-purin-9-yl)methyl)benzyl)piperidin-4-yl)ethyl)-6-(2-(aminooxy)acetamido)-2-dPEG4-(m-dPEG12)3-amidohexanamide]", "values": [{"measurement": "EC50", "setting": "[1]", "value": 1410, "unit": "nM"}]}
{"smiles": "CC(C)(C)OC(=O)NCCC1CCN(Cc2ccc(Cn3ccc4c5nc(N)ncc5ccc43)cc2)CC1", "note": "[AXC-968, tert-butyl (2-(1-(4-((2-amino-7H-pyrrolo[2,3-h]quinazolin-7-yl)methyl)benzyl)piperidin-4-yl)ethyl)carbamate]", "values": [{"measurement": "EC50", "setting": "Core 3 compounds, assay not given, read-out: EC50", "value": "> 10000", "unit": "nM"}]}
{"smiles": "CCCCNc1nc(N)c2[nH]c(=O)n(Cc3ccc(OCCN(C)C)nc3)c2n1", "note": "[DSR-6434, reference compound]", "values": [{"measurement": "EC50", "setting": "Table 10, read-out: TLR7 EC50", "value": 9.2, "unit": "nM"}, {"measurement": "EC50", "setting": "[2]", "value": 15.8, "unit": "nM"}, {"measurement": "EC50", "setting": "Table 12, TLR7 agonists attached to a linker, read-out: TLR Agonist Payload + Linkers EC50", "value": 14.8, "unit": "nM"}, {"measurement": "EC50", "setting": "Table 13, TLR7, read-out: EC50", "value": 9, "unit": "nM"}, {"measurement": "EC50", "setting": "Table 14, read-out: TLR7 EC50", "value": 10.5, "unit": "nM"}, {"measurement": "EC50", "setting": "Table 15, drug linker, read-out: TLR Agonist + Linker (DL) - EC50", "value": 15, "unit": "nM"}, {"measurement": "EC50", "setting": "Table 15, pAF containing final metabolite, read-out: TLR Agonist + Linker + nnAA (DL-pAF) - EC50", "value": 11, "unit": "nM"}, {"measurement": "EC50", "setting": "[1]", "value": 14, "unit": "nM"}]}
{"smiles": "CCCCOc1nc(N)c2[nH]c(=O)n(Cc3ccc(CN4CCC(CCNC(=O)[C@H](CCCNC(=N)N)NC(=O)CON)CC4)cc3)c2n1", "note": "[AXC-897, (S)—N-(2-(1-(4-((6-amino-2-butoxy-8-oxo-7H-purin-9(8H)-yl)methyl)benzyl)piperidin-4-yl)ethyl)-2-(2-(aminooxy)acetamido)-5-guanidinopentanamide]", "values": [{"measurement": "EC50", "setting": "Table 13, TLR7, read-out: EC50", "value": 330, "unit": "nM"}]}
{"smiles": "CCCCOc1nc(N)c2[nH]c(=O)n(Cc3ccc(CN4CCC(CCNC(=O)[C@@H](N)Cn5cc(CON)nn5)CC4)cc3)c2n1", "note": "[AXC-932, (S)-2-amino-N-(2-(1-(4-((6-amino-2-butoxy-8-oxo-7,8-dihydro-9H-purin-9-yl)methyl)benzyl)piperidin-4-yl)ethyl)-3-(4-((aminooxy)methyl)-1H-1,2,3-triazol-1-yl)propanamide]", "values": [{"measurement": "EC50", "setting": "[1]", "value": 156, "unit": "nM"}]}
{"smiles": "CCCCOc1nc(N)c2[nH]c(=O)n(Cc3ccc(CN4CCC(CCNC(=O)[C@H](CCCCNC(=O)CON)NC(=O)OCc5ccc(NC(=O)[C@H](C)NC(=O)[C@@H](NC(=O)CCOCCOCCOCCOCCOCCOCCOCCOCCOCCOCCOCCOCCOCCOCCOCCOCCOCCOCCOCCOCCOCCOCCOCCOC)C(C)C)cc5)CC4)cc3)c2n1", "note": "[AXC-925, 4-((S)-2-((S)-3-methyl-2-PEG24-amidobutanamido)propanamido)benzyl ((S)-1-((2-(1-(4-((6-amino-2-butoxy-8-oxo-7,8-dihydro-9H-purin-9-yl)methyl)benzyl)piperidin-4-yl)ethyl)amino)-6-(2-(aminooxy)acetamido)-1-oxohexan-2-yl)carbamate]", "values": [{"measurement": "EC50", "setting": "Table 18, TLR7, PEG shielding, read-out: EC50", "value": 1590, "unit": "nM"}]}
{"smiles": "CCCCOc1nc(N)c2[nH]c(=O)n(Cc3ccc(CN4CCC(CCNC(=O)[C@@H](N)CO)CC4)cc3)c2n1", "note": "[AXC-933, (S)-2-amino-N-(2-(1-(4-((6-amino-2-butoxy-8-oxo-7,8-dihydro-9H-purin-9-yl)methyl)benzyl)piperidin-4-yl)ethyl)-3-hydroxypropanamide]", "values": [{"measurement": "EC50", "setting": "[1]", "value": 40, "unit": "nM"}]}
{"smiles": "CCCCOc1nc(N)c2[nH]c(=O)n(Cc3ccc(CN4CCC(c5ccc(N)cc5)CC4)cc3)c2n1", "note": "[AXC-908, 6-amino-9-(4-((4-(4-aminophenyl)piperidin-1-yl)methyl)benzyl)-2-butoxy-7H-purin-8(9H)-one]", "values": [{"measurement": "EC50", "setting": "Table 14, read-out: TLR7 EC50", "value": 11.5, "unit": "nM"}]}
{"smiles": "CCCCc1nc2c(N)nc3ccccc3c2n1CCCCNC(=O)c1ccc(N(C)C)cc1", "note": "[AXC-740, N-(4-(4-amino-2-butyl-1H-imidazo[4,5-c]quinolin-1-yl)butyl)-4-(dimethylamino)benzamide]", "values": [{"measurement": "EC50", "setting": "Table 10, read-out: TLR7 EC50", "value": 116, "unit": "nM"}]}
{"smiles": "CCCCOc1nc(N)c2[nH]c(=O)n(Cc3ccc(CN4CCC(C5CCNCC5)CC4)cc3)c2n1", "note": "[AXC-898, 9-(4-(4,4′-bipiperidin-1-ylmethyl)benzyl)-6-amino-2-butoxy-7H-purin-8(9H)-oneone]", "values": [{"measurement": "EC50", "setting": "Table 13, TLR7, read-out: EC50", "value": 50, "unit": "nM"}]}
{"smiles": "CCCCOc1nc(N)c2[nH]c(=O)n(Cc3ccc(CN4CCC(CCNC(=O)[C@H](CCCCNC(=O)CCOCCOCCOCCOCCOCCOCCOCCOCCOCCOCCOCCOCCOCCOCCOCCOCCOCCOCCOCCOCCOCCOCCOCCOCCOCCOCCOCCOCCOCCOCCOCCOCCOCCOCCOCCOCCOC)NC(=O)CON)CC4)cc3)c2n1", "note": "[AXC-951, (S)—N-(2-(1-(4-((6-amino-2-butoxy-8-oxo-7,8-dihydro-9H-purin-9-yl)methyl)benzyl)piperidin-4-yl)ethyl)-2-(2-(aminooxy)acetamido)-6-(PEG37)hexanamide]", "values": [{"measurement": "EC50", "setting": "[1]", "value": 842, "unit": "nM"}]}
